We go through 4 compounds from patent US5733934A, “Antiarrythmic and cardioprotective substituted indenoylguanidines” (priority 1996, dated 1998).

pIC50: −log10 of the molar value.

The subject of one assay is anaesthetized rats. As to the kind of experiment: Ischemia-Induced Arrhythmias in Anaesthetized Rats. In kind it is in vivo, rat (Male Charles Foster). Further details: key to VF Percent inhibition: NP: No protection. How it is done: Ischemia-Induced Arrhythmias in Anaesthetized Rats:
Male Charles Foster rats (220-260 g) were anaesthetized with Pentobarbitone sodium. Animals were artificially ventilated. Blood pressure was recorded through carotid artery. Thoracotomy was performed to expose the heart. Left Anterior Descending (LAD) coronary artery was identified. Test compound was administered either orally […] before anaesthesia (40 minutes before LAD artery ligation) or intravenously (5 minutes before LAD artery ligation). Resulting arrhythmias during the 15 minute period of ligation were recorded and analyzed according to Lambeth Convention (Walker M. J. A, et al, 1988, Cardiovascular Research, 22, 447-455). Antiarrhythmic effect of the test compound was expressed as dose dependent inhibition of the duration of Ventricular Tachycardia (VT) and Ventricular Fibrillation (VF).

In another assay the test system is anaesthetized rat. The assay can be described thus: Myocardial Infarction in the Anaesthetized Rat. In kind it is in vivo. Particulars: intravenous 5 minutes before ligation; 1 h ligation, 1 h reperfusion. How it is done:
Myocardial Infarction in the Anaesthetized Rat:
Rats were prepared as in earlier experiments. Compounds were administered intravenously 5 minutes before ligation. The experiment consisted of one hour of ligation followed by one hour of reperfusion. Myocardial infarction was assessed by double dye technique using Evans blue and 2,3,5-Triphenyltetrazolium to identify area at risk and area of infarction respectively. Extent of infarction was expressed as a percent of area at risk. (Simpson et al, 1987, Circulation Research, 60, 666-673)

The target of a further assay is T1, Na^+ /H^+ -exchanger (Oryctolagus cuniculus, UniProt P23791).
T1 construct: Na^+ /H^+ -exchanger activity in the erythrocytes; endogenous in cells; host or cells: erythrocytes (whole blood from the ear vein) of cholesterol-fed New Zealand albino rabbits
As to the kind of experiment: Sodium-Proton exchange inhibition in rabbit erythrocytes. The format is cell-based, rabbit (Albino, New Zealand strain). The following applies: 37° C., 1 hour, hyperosmolar sucrose buffer, 0.1 mM Ouabain, read-out: IC50 (concentration necessary to reduce the erythrocyte sodium content to 50%). An excerpt:
Sodium-Proton exchange inhibition in rabbit erythrocytes:
Albino rabbits of New Zealand strain were fed with 2% cholesterol diet for six weeks prior to collecting blood for the determination of Na^+ /H^+ -exchanger activity in the erythrocytes. Eypercholesteremia has been reported to increase the exchanger activity in the rabbit erythrocytes (Scholz et al, 1990; Arteriosklerose--Neue Aspekte aus Zellbiologie und Molekulargenetik, Epidemiologie und Klinik; Assmann, G, et al, Eds, Braunschweig, Wiesbaden, Vieweg, 296-302). Blood samples were collected from the ear vein and hematocrit was determined. About 200 μl of blood was incubated at 37° C. for 1 hour with hyperosmolar sucrose buffer containing 0.1 mM Ouabain in the presence and absence of test sample. After the incubation period, the reaction was stopped by addition of 5 ml of ice cold MgCl2 solution containing 0.1 mM Ouabain. The erythrocytes were washed three times with 5 ml quantities of MgCl2 solution. They were hemolyzed by the addition of 4 ml of distilled water and the sodium content of the hemolyzed was determined by flame-photometry. The activity of the test compound was determined by its ability to reduce the sodium content of the erythrocyte and was expressed as IC50 which is the concentration necessary to reduce the erythrocyte sodium content to 50%.

Another assay deals with isolated rat heart. As to the kind of experiment: Reperfusion Induced Arrhythmias in the isolated rat heart. The following applies: LAD ligation 15 min, reperfusion 30 min, read-out: IC50 for VFD (50% reduction of duration of ventricular fibrillation). Further details: species or system rat (Charles Foster). How it is done:
Reperfusion Induced Arrhythmias in the isolated rat heart:
[…] Charles Foster rats of either sex (250-300 g) were sacrificed by stunning and exsanguination. Hearts were quickly removed and perfused according to Langendorffs method. Different concentrations of test compound were added into the perfusing medium. After 20 min of the equilibration period Left Anterior Descending (LAD) coronary artery was ligated. 15 minutes later the ligature was removed and reperfusion was allowed for next 30 minutes. During reperfusion period ECG was monitored. Duration of Ventricular Fibrillation (VFD) was the main parameter of assessment. Anti-arrhythmic activity was examined as the concentration of the test compound required to cause a 50% reduction of the VFD.

A further assay concerns rat hearts. The following applies: isolated rat hearts; Eur. Heart J. 9 {supplement 1}: 167 (1988); cited from earlier work.
For assay [1], the system named is disturbances in cardiac rhythm. The following applies: Circulation 79, 1257-1263 (1989); cited from earlier work.

T1 sequence (P23791 whole entry): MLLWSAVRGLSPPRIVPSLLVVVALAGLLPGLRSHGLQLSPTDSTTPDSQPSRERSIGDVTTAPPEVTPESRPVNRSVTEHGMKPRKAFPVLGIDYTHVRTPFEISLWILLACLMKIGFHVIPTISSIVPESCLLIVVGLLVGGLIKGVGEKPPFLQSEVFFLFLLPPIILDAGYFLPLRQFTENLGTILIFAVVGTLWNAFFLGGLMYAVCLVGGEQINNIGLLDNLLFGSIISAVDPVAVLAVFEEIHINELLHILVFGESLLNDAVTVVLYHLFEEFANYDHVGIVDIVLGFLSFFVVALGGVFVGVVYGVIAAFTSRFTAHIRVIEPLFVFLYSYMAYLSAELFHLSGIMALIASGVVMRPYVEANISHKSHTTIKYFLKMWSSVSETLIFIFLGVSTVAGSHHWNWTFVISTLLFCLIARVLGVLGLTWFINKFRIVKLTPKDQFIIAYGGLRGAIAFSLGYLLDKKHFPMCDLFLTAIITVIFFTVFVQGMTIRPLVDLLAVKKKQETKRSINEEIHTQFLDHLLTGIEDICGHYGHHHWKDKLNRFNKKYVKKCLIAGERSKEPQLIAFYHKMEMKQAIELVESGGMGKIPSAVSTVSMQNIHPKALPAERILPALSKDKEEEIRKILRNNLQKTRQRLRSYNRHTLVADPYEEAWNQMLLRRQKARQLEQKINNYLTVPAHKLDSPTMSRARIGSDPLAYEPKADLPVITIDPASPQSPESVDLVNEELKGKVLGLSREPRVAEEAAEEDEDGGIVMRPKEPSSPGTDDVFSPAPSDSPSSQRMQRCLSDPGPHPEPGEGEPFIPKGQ

In the case of `CC1=C(C(=O)N=C(N)N)Cc2c(Cl)cccc21` [Compound 10], the “VF Percent inhibition” value is 100% with anaesthetized rats (Intravenous, 0.1 mg/kg); 100% in the assay on anaesthetized rats (Intravenous, 0.3 mg/kg); 100% in the assay with anaesthetized rats (Intravenous, 1.0 mg/kg); “NP” with anaesthetized rats (Oral, 0.1 mg/kg); 84% in the assay on anaesthetized rats (Oral, 0.3 mg/kg); 100% with anaesthetized rats (Oral, 1 mg/kg). Further, the “VT Percent inhibition” value in the assay on anaesthetized rats (Intravenous, 0.1 mg/kg) is on record as 20 ± 24%; with anaesthetized rats (Intravenous, 0.3 mg/kg) it was 81 ± 8%; with anaesthetized rats (Intravenous, 1.0 mg/kg) it was 97 ± 1%; with anaesthetized rats (Oral, 0.1 mg/kg), 32 ± 12%; in the assay with anaesthetized rats (Oral, 0.3 mg/kg) it was 69 ± 11%; in the assay on anaesthetized rats (Oral, 1 mg/kg), 67 ± 11%. This compound also gave a Protection against infarction in the assay on anaesthetized rat of 68%. Besides, the figures for the pIC50 at Na^+ /H^+ -exchanger and with isolated rat heart were 7.74 and 7.77, respectively.
As for `CC1=C(C(=O)N=C(N)N)Cc2ccccc21` [Compound 2], the “VF Percent inhibition” value with anaesthetized rats (Intravenous, 0.1 mg/kg) was determined as 100%; in the assay on anaesthetized rats (Intravenous, 0.3 mg/kg) it was 100%; in the assay with anaesthetized rats (Intravenous, 1.0 mg/kg), 100%; in the assay with anaesthetized rats (Oral, 1 mg/kg) it was 68%; in the assay on anaesthetized rats (Oral, 3 mg/kg), 93%; in the assay with anaesthetized rats (Oral, 10 mg/kg) it was 00%. The “VT Percent inhibition” value in the assay on anaesthetized rats (Intravenous, 0.1 mg/kg) stood at 57 ± 17%; in the assay with anaesthetized rats (Intravenous, 0.3 mg/kg), 90 ± 3%; in the assay on anaesthetized rats (Intravenous, 1.0 mg/kg), 98 ± 1%; in the assay on anaesthetized rats (Oral, 1 mg/kg), 26 ± 0%; with anaesthetized rats (Oral, 3 mg/kg), 31 ± 21%; with anaesthetized rats (Oral, 10 mg/kg), 73 ± 8%. Moreover, in the assay with anaesthetized rat, the Protection against infarction is 17%. In addition, the pIC50 on Na^+ /H^+ -exchanger was 7.05; in the assay with isolated rat heart, 7.60.
Consider `CCN(c1nc(N)c(C(=O)N=C(N)N)nc1Cl)C(C)C` [ethylisopropylamiloride], for which the “suppression of artificially induced ventricular fibrillation” value in the assay on rat hearts was “even more potent than amiloride”.
As to `N=C(N)NC(=O)c1nc(Cl)c(N)nc1N` [amiloride], the antiarrhythmic effect entry in assay [1] is on record as “only slight”. Also, the “suppression of artificially induced ventricular fibrillation” value with rat hearts is “suppress an artificially induced ventricular fibrillation completely”.
